US7674620B2, “Derivation of terminally differentiated dopaminergic neurons from human embryonic stem cells” (Reliance Life Sciences Pvt. Ltd., priority 2003, dated 2010)

Key:
[1] = tested on: embryonic stem cell-derived dopaminergic neurons; assay: Intracellular dopamine in cell lysates by RP-HPLC; type: cell-based, human; details: for Dopamine concentration in cell lysates by HPLC: 56 mM KCl
Experimental: One definitive characteristic of a dopaminergic neuron is the production of dopamine. Therefore, the functional capacity of embryonic stem cell-derived dopaminergic neurons to produce dopamine was evaluated by directly measuring the intracellular dopamine levels using Reverse Phase HPLC (RP-HPLC). The concentration of dopamine detected in each sample was determined by comparison with a standard solution of dopamine injected into the column immediately before and after each experiment.
(§1) To begin, cells were collected at different stages of the disclosed method: undifferentiated ES cells, embryoid bodies, Nestin-positive neuroprogenitor cells, NCAM-positive cells, and differentiated cells isolated after 7, 22, and 37 days of differentiation in Neurobasal medium. Before collection, the cells differentiated in Neurobasal medium were first stimulated to induce dopamine secretion by the addition of 56 mM KCl in HBSS for 15 minutes. Approximately 5×10^6 cells were trypsinised and pelleted by centrifugation. The cells were then sonicated in cold 1N perchloric acid with antioxidants (0.2 g/l sodium metabisulphite), and centrifuged at 15,000 rpm/min for 20 minutes at 4° C. The supematent was extracted and stored at −70° C. for subsequent determination of the intracellular dopamine concentration by RP-HPLC. Dopamine levels were determined in the cell lysates and culture supematent (48 hrs after the last medium change). The culture supematent was immediately stabilized with 7.5% orthophosphoric acid and sodium metabisulphite.

[2] = tested on: embryonic stem cell-derived dopaminergic neurons; assay: Dopamine release into conditioned medium by RP-HPLC; type: cell-based, human; details: 56 mM for 15 minutes, 7, 22, 37 days of differentiation
Experimental: The cells were stimulated with 56 mM KCl for 15 minutes to induce secretion of dopamine; the culture supernatant was stabilized with 7.5% orthrophosphoric acid and sodium metabisulphite before analysis by RP-HPLC.
as §1

[3] = tested on: embryonic stem cell-derived dopaminergic neurons; assay: Intracellular dopamine in cell lysates by RP-HPLC; type: cell-based, human; details: cell cultures incubated with the neurotoxin
[4] = tested on: neuroprogenitor cells derived from human embryonic stem cells; assay: Differentiation of neuroprogenitor cells into TH positive (dopaminergic) neurons, immunofluorescence; type: cell-based; details: present in the Neurobasal medium
Text: Development of dopaminergic neurons in vivo depends on the regulated action of extracellular signaling molecules. These molecules activate a cascade of transcription factors with lineage-restricted expression. These transcription factors are responsible for increasing the expression of a specific set of genes involved in the development of the dopaminergic phenotype. To encourage the expanded neuroprogenitors cells generated using the above protocol into functional dopaminergic neurons, the growth factors bFGF and EGF were first withdrawn from the cells. Next, differentiation of the neuroprogenitors cells into dopaminergic neurons was induced by culturing the cells in Neurobasal medium for 30-50 days. […]
The differentiated neuronal cell types generated according to the present disclosure were evaluated both by the overall morphology of the cells, as well as the phenotypes identified by immunoflourescence. […]
The differentiated cells were also analyzed by double-labeling the cells with primary antibodies to TH (green), along with MAP-2, DAT, Nurr-1, β-Tubulin, FITC-labeled secondary antibodies (Texas red) respectively (FIG. 8). […] The cell density of dopaminergic neurons was quantified by counting the numbers of TH-positive cells and MAP-2-positive cells per field in randomly selected fields using a 40× objective lens. The percent proportion of TH-positive cells was calculated (FIG. 9). […]

[Cl-].[K+] [KCl]
Dopamine concentration in cell lysates by HPLC ([1]; 7 d, line #3, after 'Addition of growth factors'): 5.5 µg/mL | Dopamine concentration in cell lysates by HPLC ([1]; 7 d, line #5, after 'N-acetyl cysteine along with growth factors'): 8.8 µg/mL | Dopamine concentration in cell lysates by HPLC ([1]; 7 d, line #7, after 'Ascorbic acid along with growth factors'): 6.9 µg/mL | Dopamine concentration in cell lysates by HPLC ([1]; 22 d, line #3, after 'Addition of growth factors'): 22 µg/mL | Dopamine concentration in cell lysates by HPLC ([1]; 22 d, line #5, after 'N-acetyl cysteine along with growth factors'): 30.9 µg/mL | Dopamine concentration in cell lysates by HPLC ([1]; 22 d, line #7, after 'Ascorbic acid along with growth factors'): 5.5 µg/mL | Dopamine concentration in cell lysates by HPLC ([1]; 37 d, line #3, after 'Addition of growth factors'): 7.2 µg/mL | Dopamine concentration in cell lysates by HPLC ([1]; 37 d, line #5, after 'N-acetyl cysteine along with growth factors'): 10 µg/mL | Dopamine concentration in cell lysates by HPLC ([1]; 37 d, line #7, after 'Ascorbic acid along with growth factors'): 10 µg/mL | dopamine release into the conditioned medium (FIG. 14) [2]: causes dopamine release | dopamine release into the conditioned medium (FIG. 14) ([2]; listed as KCL): increase

CN1CC=C(c2ccccc2)CC1.Cl [MPTP, N-methyl-4-phenyl 1,2,3,6-tetrahydropyridine hydrochloride]
dopamine in cell lysates of incubated cell cultures by RP-HPLC [3]: no dopamine was detected | intracellular dopamine in cell lysates of treated cells (FIG. 13) ([1]; 7 days of differentiation): No dopamine was detected | intracellular dopamine in cell lysates of treated cells (FIG. 13) ([1]; 22 days of differentiation): No dopamine was detected | intracellular dopamine in cell lysates of treated cells (FIG. 13) ([1]; 37 days of differentiation): reduced

IL-1β: Interleukin-1β, growth factor in the Neurobasal medium
effect on amount of TH positive neurons [4]: appears to increase the amount of TH positive neurons
